Experimental data as given in patent US9073821B2, “Hydroxamic acid derivative” (priority 2010, dated 2015).
Where two headings read alike, the source gives them in different places.

Molecular target: Pseudomonas aeruginosa LpxC enzyme (Pseudomonas aeruginosa (strain ATCC 15692 / DSM 22644 / CIP 104116 / JCM 14847 / LMG 12228 / 1C / PRS 101 / PAO1), UniProt P47205)
Test: biochemical
Type: biochemical
[1] = inhibitory activity on Pseudomonas aeruginosa LpxC enzyme, class symbols A/B/C, read-out: Enzyme inhibitory activity
[2] = class symbols A/B/C by IC50, Table 3, read-out: Enzyme inhibitory activity (inhibitory activity on Pseudomonas aeruginosa LpxC enzyme)

IC50 [1] [nM] | IC50 [2] [nM] | Compound
< 10 |  | CNC(=O)C(C(=O)NO)N(C)C(=O)c1ccc(-c2ccc3ncccc3c2)cc1 (centres unmarked) [Compound 200, N-hydroxy-N′-methyl-2-{methyl[4-(quinolin-6-yl)benzoyl]amino}propanediamide]
< 10 |  | CNC(=O)C(C(=O)NO)N(C)C(=O)c1ccc(-c2ccc(OCCCN3CCOCC3)c(F)c2)cc1 (centres unmarked) [Compound 208, 2-[({3′-fluoro-4′-[3-(morpholin-4-yl)propoxy]biphenyl-4-yl}carbonyl)(methyl)amino]-N-hydroxy-N′-methylpropanediamide]
10 to 100 |  | CCCCc1ccc(-c2ccc(C(=O)N(C)C(C(=O)NC)C(=O)NO)cc2)cn1 (centres unmarked) [Compound 474, 2-[{[4-(6-butylpyridin-3-yl)phenyl]carbonyl}(methyl)amino]-N-hydroxy-N′-methylpropanediamide]
10 to 100 |  | CCCNC(=O)C(NC(=O)c1ccc(-c2ccc(OCCO)cc2)cc1)C(=O)NO (centres unmarked) [Compound 142, N-hydroxy-2-({[4′-(2-hydroxyethoxy)biphenyl-4-yl]carbonyl}amino)-N′-propylpropanediamide]
10 to 100 |  | CNC(=O)C(C(=O)NO)N(C)C(=O)c1ccc(-c2cc(Cl)cc(Cl)c2)cc1 (centres unmarked) [Compound 222, 2-{[(3′,5′-dichlorobiphenyl-4-yl)carbonyl](methyl)amino}-N-hydroxy-N′-methylpropanediamide]
< 10 |  | CNC(=O)C(C(=O)NO)N(C)C(=O)c1ccc(-c2ccc(NCCOC)c(F)c2)cc1 (centres unmarked) [Compound 66, 2-[({3′-fluoro-4′-[(2-methoxyethyl)amino]biphenyl-4-yl}carbonyl)(methyl)amino]-N-hydroxy-N′-methylpropanediamide]
10 to 100 |  | CNC(=O)C(C(=O)NO)N(C)C(=O)c1ccc(-c2ccc(NC)c(OC)c2)cc1 (centres unmarked) [Compound 50, N-hydroxy-2-[{[3′-methoxy-4′-(methylamino)biphenyl-4-yl]carbonyl}(methyl)amino]-N′-methylpropanediamide]
< 10 |  | CNC(=O)C(C(=O)NO)N(C)C(=O)c1ccc(-c2ccc3c(c2)cc(C)n3C)cc1 (centres unmarked) [Compound 57, 2-{[4-(1,2-dimethyl-1H-indol-5-yl)benzoyl](methyl)amino}-N-hydroxy-N′-methylpropanediamide]
> 100 |  | CNC(=O)C(C(=O)NO)N(C)C(=O)c1ccc(Oc2ccccc2)cc1 (centres unmarked) [Compound 443, N-hydroxy-N′-methyl-2-{methyl[(4-phenoxyphenyl)carbonyl]amino}propanediamide]
10 to 100 |  | CNC(=O)C(C(=O)NO)N(C)C(=O)c1ccc(-c2ccc(OCC3(CN4CCOCC4)CC3)cc2)cc1 (centres unmarked) [Compound 102, N-hydroxy-N′-methyl-2-{methyl[(4′-{[1-(morpholin-4-ylmethyl)cyclopropyl]methoxy}biphenyl-4-yl)carbonyl]amino}propanediamide]
> 100 |  | CCCNC(=O)C(C(=O)NO)N(C)C(=O)c1ccc(-c2ccccc2)cc1 (centres unmarked) [Compound 171, 2-[(biphenyl-4-ylcarbonyl)(methyl)amino]-N-hydroxy-N′-propylpropanediamide]
< 10 |  | CNC(=O)C(C)(C(=O)NO)N(C)C(=O)c1ccc(-c2ccccc2)cc1 (centres unmarked) [Compound 324, 2-[(Biphenyl-4-ylcarbonyl)(methyl)amino]-N-hydroxy-N′,2-dimethylpropanediamide]
< 10 |  | CNC(=O)C(C(=O)NO)N(C)C(=O)c1ccc(-c2ccc(NC)c(F)c2)cc1 (centres unmarked) [Compound 38, 2-[{[3′-fluoro-4′-(methylamino)biphenyl-4-yl]carbonyl}(methyl)amino]-N-hydroxy-N′-methylpropanediamide]
10 to 100 |  | CCCS(=O)(=O)Nc1ccc(-c2ccc(C(=O)N(C)C(C(=O)NC)C(=O)NO)cc2)cc1 (centres unmarked) [Compound 78, N-hydroxy-N′-methyl-2-[methyl({4′-[(propylsulfonyl)amino]biphenyl-4-yl}carbonyl)amino]propanediamide]
> 100 |  | CN(C(=O)c1ccc(-c2ccccc2)cc1)C(C(=O)NO)C(=O)NCc1ccncc1 (centres unmarked) [Compound 178, 2-[(biphenyl-4-ylcarbonyl)(methyl)amino]-N-hydroxy-N′-(pyridin-4-ylmethyl)propanediamide]
< 10 |  | CNC(=O)C(C(=O)NO)N(C)C(=O)c1ccc(-c2ccc(OCCN(C)c3ccccc3)cc2)cc1 (centres unmarked) [Compound 89, N-hydroxy-N′-methyl-2-{methyl[(4′-{2-[methyl(phenyl)amino]ethoxy}biphenyl-4-yl)carbonyl]amino}propanediamide]
< 10 |  | CNC(=O)C(C(=O)NO)N(C)C(=O)c1ccc(-c2ccc3ccn(C)c3c2)cc1 (centres unmarked) [Compound 36, N-hydroxy-N′-methyl-2-{methyl[4-(1-methyl-1H-indol-6-yl)benzoyl]amino}propanediamide]
10 to 100 |  | CNC(=O)C(C(=O)NO)N(C)C(=O)c1ccc(-c2ccc(CN(C)OC)cc2)cc1 (centres unmarked) [Compound 259, N-hydroxy-2-{[(4′-{[methoxy(methyl)amino]methyl}biphenyl-4-yl)carbonyl](methyl)amino}-N′-methylpropanediamide]
< 10 |  | CNC(=O)C(C(=O)NO)N(C)C(=O)c1ccc(C#Cc2ccc(CNCc3ccccc3)cc2)cc1 (centres unmarked) [Compound 330, 2-[{[4-({4-[(benzylamino)methyl]phenyl}ethynyl)phenyl]carbonyl}(methyl)amino]-N-hydroxy-N′-methylpropanediamide]

The next lines start with the molecule.

Compound | IC50 [1] [nM] | IC50 [2] [nM]
CCCCOc1ccc(C(=O)N(C)C(C(=O)NC)C(=O)NO)cc1 (centres unmarked) [Compound 35, 2-[(4-butoxybenzoyl)(methyl)amino]-N-hydroxy-N′-methylpropanediamide] | 10 to 100 | 
CC(C)(C)NC(=O)C(NC(=O)c1ccc(-c2ccc(OCCO)cc2)cc1)C(=O)NO (centres unmarked) [Compound 119, N-tert-butyl-N′-hydroxy-2-({[4′-(2-hydroxyethoxy)biphenyl-4-yl]carbonyl}amino)propanediamide] | > 100 | 
CCOCc1cc(C#Cc2ccc(C(=O)N(C)[C@@](C)(C(=O)NC)C(=O)NO)cc2)co1 [Compound 612, (2S)-2-[(4-{[5-(ethoxymethyl)furan-3-yl]ethynyl}benzoyl)(methyl)amino]-N-hydroxy-N′,2-dimethylpropanediamide] |  | < 10
CCOC1CN(Cc2ccc(C#Cc3ccc(C(=O)N(C)C(C(=O)NC)C(=O)NO)cc3)cc2C(F)(F)F)C1 (centres unmarked) [Compound 573, 2-[{[4-({4-[(3-ethoxyazetidin-1-yl)methyl]-3-(trifluoromethyl)phenyl}ethynyl)phenyl]carbonyl}(methyl)amino]-N-hydroxy-N′-methylpropanediamide] |  | < 10
CNC(=O)C(C(=O)NO)N(C)C(=O)c1ccc(-c2ccc(OCc3cccc(CN4CCOCC4)c3)cc2)cc1 (centres unmarked) [Compound 87, N-hydroxy-N′-methyl-2-{methyl[(4′-{[3-(morpholin-4-ylmethyl)benzyl]oxy}biphenyl-4-yl)carbonyl]amino}propanediamide] | < 10 | 
CNC(=O)C(C(=O)NO)N(C)C(=O)c1ccc(C#Cc2cccc(CN3CCOCC3)c2)cc1 (centres unmarked) [Compound 375, N-hydroxy-N′-methyl-2-{methyl[(4-{[3-(morpholin-4-ylmethyl)phenyl]ethynyl}phenyl)carbonyl]amino}propanediamide] | 10 to 100 | 
O=C(NC(C(=O)NO)C(=O)NCc1cccnc1)c1ccc(-c2ccc(OCCO)cc2)cc1 (centres unmarked) [Compound 129, N-hydroxy-2-({[4′-(2-hydroxyethoxy)biphenyl-4-yl]carbonyl}amino)-N′-(pyridin-3-ylmethyl)propanediamide] | < 10 | 
O=C(NC(C(=O)NO)C(=O)NCC(F)F)c1ccc(-c2ccc(OCCO)cc2)cc1 (centres unmarked) [Compound 137, N-(2,2-difluoroethyl)-N′-hydroxy-2-({[4′-(2-hydroxyethoxy)biphenyl-4-yl]carbonyl}amino)propanediamide] | 10 to 100 | 
O=C(NC(C(=O)NO)C(=O)NO)c1ccc(-c2ccc(OCCO)cc2)cc1 [Compound 148, N,N′-dihydroxy-2-({[4′-(2-hydroxyethoxy)biphenyl-4-yl]carbonyl}amino)propanediamide] | 10 to 100 | 
O=C(NC(C(=O)NO)C(=O)NC1CC1)c1ccc(-c2ccc(OCCO)cc2)cc1 (centres unmarked) [Compound 121, N-cyclopropyl-N′-hydroxy-2-({[4′-(2-hydroxyethoxy)biphenyl-4-yl]carbonyl}amino)propanediamide] | 10 to 100 | 
CNC(=O)C(C(=O)NO)N(C)C(=O)c1ccc(C#Cc2ccc(CNCCF)cc2)cc1 (centres unmarked) [Compound 300, 2-[({4-[(4-{[(2-fluoroethyl)amino]methyl}phenyl)ethynyl]phenyl}carbonyl)(methyl)amino]-N-hydroxy-N′-methylpropanediamide] | < 10 | 
O=C(NC(C(=O)NO)C(=O)Nc1cccnc1)c1ccc(-c2ccc(OCCO)cc2)cc1 (centres unmarked) [Compound 116, N-hydroxy-2-({[4′-(2-hydroxyethoxy)biphenyl-4-yl]carbonyl}amino)-N′-(pyridin-3-yl)propanediamide] | 10 to 100 | 
CNC(=O)C(C(=O)NO)N(CC(F)F)C(=O)c1ccc(-c2ccc(OCCCN3CCOCC3)cc2)cc1 (centres unmarked) [Compound 225, 2-[(2,2-difluoroethyl)({4′-[3-(morpholin-4-yl)propoxy]biphenyl-4-yl}carbonyl)amino]-N-hydroxy-N′-methylpropanediamide] | < 10 | 
O=C(NC(C(=O)NO)C(=O)NCc1cncs1)c1ccc(-c2ccc(OCCO)cc2)cc1 (centres unmarked) [Compound 11, N-hydroxy-2-({[4′-(2-hydroxyethoxy)biphenyl-4-yl]carbonyl}amino)-N′-(1,3-thiazol-5-ylmethyl)propanediamide] | < 10 | 
CNC(=O)C(C(=O)NO)N(C)C(=O)c1ccc(C#Cc2ccc(CCN3CCCOCC3)cc2)cc1 (centres unmarked) [Compound 207, N-hydroxy-N′-methyl-2-{methyl[4-({4-[2-(1,4-oxazepan-4-yl)ethyl]phenyl}ethynyl)benzoyl]amino}propanediamide] | < 10 | 
CN(C)CCNC(=O)C(NC(=O)c1ccc(-c2ccc(OCCO)cc2)cc1)C(=O)NO (centres unmarked) [Compound 123, N-[2-(dimethylamino)ethyl]-N′-hydroxy-2-({[4′-(2-hydroxyethoxy)biphenyl-4-yl]carbonyl}amino)propanediamide] | > 100 | 
